From US20190382445A1, “PEPTIDE HAVING MELANOGENESIS-INHIBITING ACTIVITY AND COMPOSITION COMPRISING SAME” (RUBY CROWN CO. LTD., priority 2016, published 2019)
Ends that are not written are not given here.

Tests used:
[1] = test system: human epidermal melanocytes (HEM); assay: Melanin content in HEM stimulated with α-MSH or L-tyrosine; format: cell-based
From the text: FIG. 5 is an experimental result showing effects of peptide B6 on cell viability of human epidermal melanocytes (HEM), melanin content and human tyrosinase (TYR) enzymatic activity. […] The intracellular and extracellular melanin contents were normalized with respect to the total protein content. […] Data are expressed in percent (%) as mean±standard error (mean±SE, n=3) compared to the vehicle control group. In the figures, #represents p<0.05 compared to the control group and * represents p<0.05 compared to cells stimulated only with tyrosine.
(§1) Melanogenesis-inhibitory effects of the analyte (the peptides) was confirmed using the B16-F10 cell line and HEM. B16-F10 cells were treated with a test peptide at different concentrations for 60 minutes and stimulated using a 100 nM α-MSH for 72 hours. While HEM was also treated with the test peptide at different concentrations for 60 minutes and cultured with 100 nM α-MSH or 4.0 mM L-tyrosine while replacing the culture medium every 48 hours for 6 days. Using the culture medium used for culturing cells (conditioned medium), extracellular melanin level was measured. On the other hand, intercellular melanin was extracted with 0.1M NaOH at 60° C. for 60 minutes. A melanin content was determined by measuring an absorbance at 475 nm according to a spectroscopic method. The resultant values were subjected to normalization with respect to the total protein content of the cell.
(§2) Cell viability was determined by treating the cells with B6 at different concentrations of up to 1 mM for 24 hours (A in FIG. 5). […] Further, effects on melanin content in the cells were examined by pre-treatment of the cells with B6 peptide at different concentrations of up to 300 μM, and then, stimulating the same with α-MSH at 100 nM or tyrosine at 4 mM for […] (B, C in FIG. 5). As a positive control group for melanogenesis inhibition, arbutin was used.

[2] = test system: B16-F10 cells; assay: Melanin content in α-MSH-stimulated B16-F10 cells (absorbance at 475 nm); format: cell-based, murine; conditions: for melanin inhibitory effect of short peptides compared to B6 peptide: concentrations of 100 μM to 10 μM
Procedure: FIG. 2 is an experimental result showing the effect of each hexapeptide on cellular melanin biosynthesis. FIG. 2A represents a peptide wherein the type of amino acids fixed at 3 positions in the amino acid sequence of the amino acids, while the type of amino acids is altered at the other 3 positions. FIG. 2B represents a peptide wherein the amino acid sequence was defined. The cell-based assay in FIG. 2 is conducted by treating B16-F10 cells with a vehicle or peptide at a predetermined concentration, stimulating the same with α-MSH at 100 nM, and measuring absorbance at 475 nm after 72 hours to determine melanin content. Data are expressed in percent (%) as mean ± standard error (mean±SE, n=3) compared to the vehicle control group. In the figures, # means p<0.05 compared to the control group and * means p<0.05 compared to cells stimulated only with α-MSH. The amino acid sequences described in FIG. 2 are all represented in the direction from the amino terminal to the carboxy terminal. An amino functional group (—NH2) shown in the peptide terminal is one added by carboxy terminal amidation used in peptide synthesis.
The cell-based Assay in FIG. 3 is conducted by treating B16-F10 cells with a vehicle or peptide at a predetermined concentration, stimulating the same with 100 nMα-[…], and measuring the absorbance at 475 nm after 72 hours to determine the melanin content. Data are expressed in percent (%) as mean±standard, error (mean±SE, n=3) compared to the vehicle control group. In the figures, # means p<0.05 compared to the control group and * means p<0.05 compared to cells stimulated only with α-MSH. The amino acid sequences described in FIG. 2 are all represented in the direction from the amino terminal to the carboxy terminal. An acetyl group (Ac—) shown in the peptide amino terminal or an amino functional group (—NH2) shown in the carboxy terminal is one added by chemical synthesis of peptide.
as §1

[3] = test system: B16-F10 cells; assay: Cell viability by MTT assay, B16-F10; format: cell-based, murine; conditions: up to 300 μM, 24 hours (tested up to 1 mM)
Procedure: (§3) Cell viability was determined by 3-(4,5-dimethylthiazol-2-yl)-2,5-diphenyltetrazolium bromide (MTT) assay. B16-F10 cell line and HEM were treated with test peptides at different concentrations for 24 hours. After washing with PBS, the cells were in a culture medium 100 including 1 mg/mL MTT (Amresco, Solon, Ohio, USA) added thereto for 3 hours. After removing the culture medium, formazan accumulated in the cells was […] using isopropanol and subjected to determination of absorbance at 595 nm using a SPECTROstar Nano microplate reader (BMG LABTECH GmbH, Ortenberg, Germany).
Cell viability was determined by treating the cells with B6 at different concentrations up to 1 mM for 24 hours (A in FIG. 4). […] Further, effects on melanin content in the cells were examined by pre-treatment of the cells with B6 peptide at different concentrations of up to 300 μM, and then, stimulating the same with α-MSH at 100 nM for 72 hours (B in FIG. 4).

[4] = test system: human epidermal melanocytes (HEM); assay: Cell viability by MTT assay, HEM; format: cell-based; conditions: up to 300 μM, 24 hours (tested up to 1 mM)
Procedure: as §3, §2

N[C@@H](Cc1ccc(O)cc1)C(=O)O [L-tyrosine]
extracellular and intracellular melanin contents, effect of stimulus L-tyrosine ([1]; tyrosine at 4 mM, HEM): increased extracellular and intracellular melanin contents

Ac-Ser-Tyr-Ser-Met-Glu-His-Phe-Arg-Trp-Gly-Lys-Pro-Val-NH2 (Ac-SYSMEHFRWGKPV-NH2) [α-MSH, agent of melanocortin 1 receptor used to stimulate melanogenesis, reference compound]
melanin content, effect of stimulus ([2]; α-MSH alone, B16-F10 cells): increased melanin content | melanogenesis, effect of stimulus α-MSH ([1]; α-MSH at 100 nM, HEM): did not show significant effect on melanogenesis

FSHHLG [C1]
melanin inhibitory effect of short peptides compared to B6 peptide ([2]; 100 nM α-MSH, 72 hours): melanin inhibitory effect similar to B6 peptide

OC[C@H]1O[C@@H](Oc2ccc(O)cc2)[C@H](O)[C@@H](O)[C@@H]1O [arbutin]
inhibition of increase in melanin content by L-tyrosine ([1]; HEM stimulated with 4 mM L-tyrosine, peptide up to 300 μM): effectively inhibited

Ser-His-His-Leu-Gly (SHHLG; C3 peptide)
melanogenesis inhibitory effect of short peptide ([2]; 100 μM, 100 nM α-MSH, 72 hours): excellent in melanogenesis inhibitory effect

FSHHLG-NH2 [B6, Phe-Ser-His-His-Leu-Gly]
cell viability [3]: did not affect the viability | cell viability [4]: did not affect the viability

Phe-Ser-His-His-Leu (FSHHL; C2 peptide)
melanin inhibitory effect of short peptides compared to B6 peptide ([2]; 100 nM α-MSH, 72 hours): did not substantially inhibit melanogenesis
